From PMC6910946, “Multiple roles of Bet v 1 ligands in allergen stabilization and modulation of endosomal protease activity” (Allergy, 2019)

Key:
Bet_v_1 = biological target: T1, Bet_v_1 (Betula pendula, UniProt P15494); assay: NMR spectroscopy (1H-15N HSQC) binding confirmation
T1 construct: made in house
T1 sequence (P15494 1-160): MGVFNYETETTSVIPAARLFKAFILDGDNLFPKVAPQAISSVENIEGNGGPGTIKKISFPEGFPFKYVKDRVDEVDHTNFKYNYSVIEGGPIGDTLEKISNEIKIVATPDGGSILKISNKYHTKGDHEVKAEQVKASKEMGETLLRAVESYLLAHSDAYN
From the text: Surface acoustic wave (SAW) technology and NMR spectroscopy were used to observe the interaction of Bet_v_1 with the selected compounds, including determination of the dissociation constant (K d). The influence of ligand binding on the secondary structure elements and the thermal stability of Bet_v_1 was monitored using circular dichroism (CD, JASCO J‐815 spectropolarimeter, Jasco) and Fourier transform infrared (FTIR) spectroscopy (Tensor II FTIR system, Bruker Optics Inc). A detailed description of these methods is available (Appendix [Link], [Link]).
To validate the interactions determined by SAW, we used NMR spectroscopy to test the specific binding of PPE1, LTA, LPS, and Kdo2 to Bet_v_1 (Table 1, Figure S2). […] The commercially available PPA1 was used as a substitute for PPE1 to identify the phytoprostane binding site(s).
The NMR data were acquired with either a 600 or 800 MHz Agilent DD2 spectrometer with a cryogenically cooled probe using the pulse sequence gNhsqc. Bet v 1 assignments were taken from.^2 The experiments were performed under the following conditions: LTA: 45 µM Bet v 1 and 300 µM LTA in PBS, 10% ^2H2O, 60 µM DSS; PPE1: 25 µM Bet v 1 and 2 µM PPE1 in PBS, 5% ^2H-(d6) DMSO, 10% ^2H2O, 60 µM DSS; PPA1: 100 µM Bet v 1 and 302 µM PPA1 (Cayman Chemical, MI, USA) in PBS, 8.7% ^2H-(d6) DMSO, 10% ^2H2O, 60 µM DSS; LPS: 100 µM Bet v 1 and 400 µM LPS in PBS pH 7.4, 10% ^2H2O, 60 µM DSS. Kdo2: 100 µM Bet v 1 and 422 µM Kdo2 in PBS pH 7.0, 10% ^2H2O, 8.6% ^2H-(d6) DMSO, 60 µM DSS.

[1] = biological target: T2, recombinant rat cathepsin B (Rattus norvegicus, UniProt P00787); assay: Enzymatic activity assay, fluorogenic substrate Z-FR-AMC; type: biochemical; conditions: PPE1 5 µmol/L, 15 min (Figure 4A)
T2 construct: gift of Dr Lukas Mach
T2 sequence (P00787 80-339): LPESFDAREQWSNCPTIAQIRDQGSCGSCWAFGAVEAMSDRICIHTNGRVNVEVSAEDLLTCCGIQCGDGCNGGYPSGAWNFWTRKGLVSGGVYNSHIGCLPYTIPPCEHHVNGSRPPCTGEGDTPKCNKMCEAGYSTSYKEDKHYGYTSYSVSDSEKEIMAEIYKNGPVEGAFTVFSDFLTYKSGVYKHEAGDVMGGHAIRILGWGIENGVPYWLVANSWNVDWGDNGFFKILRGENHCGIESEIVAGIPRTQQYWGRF
Protocol: (§1) To evaluate the influence of Bet_v_1 ligands on cathepsin S and legumain activities, 10 nmol/L of protease was incubated with 100 µmol/L of ligand (unless otherwise stated) and 50 µmol/L of fluorogenic substrate in digestion buffer (0.1 mol/L sodium acetate pH 5.0, 0.1 mol/L sodium chloride, 5 mmol/L EDTA, and 2 mmol/L DTT), as described in the Appendix [Link], [Link]. The effect of birch pollen extract (BPE) (20‐200 µg/mL) on the cathepsin S and legumain activities was assessed in parallel. The inhibitory effect of PPE1 was assessed by replacing DTT with 0.5 mmol/L TCEP. Activities of recombinant rat cathepsin B (provided by Dr Lukas Mach) and papain (Merck) at 10 nmol/L were assayed using Z‐FR‐AMC (Bachem) as a fluorogenic substrate.

papain = biological target: T3, papain (Carica papaya, UniProt P00784); assay: as above; type: biochemical; conditions: PPE1 5 µmol/L, 15 min (Figure 4A)
T3 construct: purchased Merck
T3 sequence (P00784 134-345): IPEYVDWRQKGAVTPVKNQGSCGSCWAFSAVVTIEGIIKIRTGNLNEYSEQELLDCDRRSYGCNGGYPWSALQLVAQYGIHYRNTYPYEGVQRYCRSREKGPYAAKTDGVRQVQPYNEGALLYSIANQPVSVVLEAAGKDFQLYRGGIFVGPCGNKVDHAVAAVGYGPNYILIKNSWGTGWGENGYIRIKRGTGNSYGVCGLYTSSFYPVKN
Protocol: as §1

legumain = biological target: T4, legumain (Homo sapiens, UniProt Q99538); assay: Enzymatic activity assay, fluorogenic substrate Z-AAN-AMC; type: biochemical; conditions: PPE1 5 µmol/L (Figure 4D)
T4 construct: made in house
T4 sequence (Q99538 18-433): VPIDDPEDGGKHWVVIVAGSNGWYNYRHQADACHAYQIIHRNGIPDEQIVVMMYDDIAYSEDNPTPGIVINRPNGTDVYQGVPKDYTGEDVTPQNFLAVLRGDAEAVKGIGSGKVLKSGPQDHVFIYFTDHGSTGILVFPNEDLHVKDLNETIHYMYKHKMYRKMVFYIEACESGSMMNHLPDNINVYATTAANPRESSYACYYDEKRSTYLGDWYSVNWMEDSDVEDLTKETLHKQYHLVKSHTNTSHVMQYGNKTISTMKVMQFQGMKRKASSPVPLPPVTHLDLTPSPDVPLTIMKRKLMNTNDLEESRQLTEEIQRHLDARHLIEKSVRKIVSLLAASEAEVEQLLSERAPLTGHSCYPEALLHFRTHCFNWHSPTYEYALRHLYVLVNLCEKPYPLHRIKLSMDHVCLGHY
Protocol: as §1
For the detection of cathepsin or legumain activities in the microsomal fraction, 8 µg of microsomal extract was incubated with 50 µM fluorogenic substrate with or without inhibitor in assay buffer (100 mM citrate pH 4.8 and 2 mM DTT). The enzymatic reactions were carried out in a 50 µL reaction volume in a 96-half-well black flat bottom assay plate (Corning Inc., Corning, NY, USA) at 37°C. The fluorescence signal was recorded using a Tecan Infinite-200 plate reader (Tecan, Männedorf, Switzerland) at an excitation wavelength of 380 nm and emission wavelength of 460 nm for 15 min of continuous measurement with a 30-s interval reading. […]

LPS‐stimulated human DCs = test system: LPS‐stimulated human DCs; design: method as in PMID 19454659, PMID 17451798; conditions: cited from earlier work
cathepsin S = biological target: T5, cathepsin S (Homo sapiens, UniProt P25774); assay: Enzymatic activity assay, fluorogenic substrate Z-VVR-AMC; type: biochemical
T5 construct: made in house
T5 sequence (P25774 115-331): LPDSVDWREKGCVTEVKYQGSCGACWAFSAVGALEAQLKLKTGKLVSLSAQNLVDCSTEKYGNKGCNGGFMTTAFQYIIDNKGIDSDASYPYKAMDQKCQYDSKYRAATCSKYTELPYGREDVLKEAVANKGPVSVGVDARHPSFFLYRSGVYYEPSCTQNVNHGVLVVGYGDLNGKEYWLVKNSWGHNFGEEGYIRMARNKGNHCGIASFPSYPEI
Protocol: as §1
For the detection of cathepsin or legumain activities in the microsomal fraction, 8 µg of microsomal extract was incubated with 50 µM fluorogenic substrate with or without inhibitor in assay buffer (100 mM citrate pH 4.8 and 2 mM DTT). The enzymatic reactions were carried out in a 50 µL reaction volume in a 96-half-well black flat bottom assay plate (Corning Inc., Corning, NY, USA) at 37°C. The fluorescence signal was recorded using a Tecan Infinite-200 plate reader (Tecan, Männedorf, Switzerland) at an excitation wavelength of 380 nm and emission wavelength of 460 nm for 15 min of continuous measurement with a 30-s interval reading. The fluorogenic substrates used for cathepsin S and legumain were Z-VVR-AMC and Z-AAN-AMC (Bachem, Bubendorf, Switzerland), respectively. The inhibitors used for cathepsin S and legumain were Z-FL-COCHO (Sigma-Aldrich, CA, USA) and Ac-YVAD-CMK (Bachem), respectively^11.

CCC1C(=O)CC(O)C1/C=C/C(O)CCCCCCCC(=O)O (stereo not drawn) [PPE1, E1 phytoprostanes]
NMR (binding confirmation, K d) (Bet_v_1; 15N-labeled Bet v 1, direct measurement of Kd prevented by intermediate exchange): low to sub‐µmol/L
specific binding to Bet v 1 (1H-15N HSQC spectra) (Bet_v_1; absence vs presence of compound): specifically binds
rat cathepsin B fluorogenic activity [1]: inhibits
papain fluorogenic activity (papain): inhibits
legumain activity in the presence of DTT and TCEP (legumain): no inhibitory effect
production of IL‐12p70 (LPS‐stimulated human DCs): inhibits the production of IL‐12p70
cathepsin S fluorogenic activity (cathepsin S; 10 nmol/L protease, 100 µmol/L ligand, 50 µmol/L substrate, pH 5.0, 2 mmol/L DTT (Figure 3A)): specifically inhibited
cathepsin S fluorogenic activity (cathepsin S; PPE1 5 µmol/L, 15 min (Figure 4A)): inhibits
cathepsin S activity in the presence of TCEP (cathepsin S; PPE1 5 µmol/L, 0.5 mmol/L TCEP instead of DTT (Figure 4D)): completely abolished
